Assay results taken from ChEMBL document CHEMBL4312021, “Discovery of [1,2,4]-triazolo [1,5-a]pyrimidine-7(4H)-one derivatives as positive modulators of GABAA1 receptor with potent anticonvulsant activity and low toxicity” (Eur J Med Chem, 2020).
pIC50: −log10 of the molar value. In brackets after ≈: the same amount, converted by molar mass. Activity calls are given as the source filed them. No cut-off for these calls is given here.

Assays:
Mus musculus [1] = experiment: Anticonvulsant activity in Kunming mouse assessed as reduction in MES-induced seizure at 30 to 300 mg/kg, ip measured after 30 mins; format: functional, organism-based
Mus musculus [2] = experiment: Anticonvulsant activity in Kunming mouse assessed as reduction in ScPTZ-induced seizure at 100 mg/kg, ip administered before 30 mins of ScPTZ stimulation; format: functional, organism-based
Mus musculus [3] = experiment: Anticonvulsant activity in Kunming mouse assessed as reduction in ScPTZ-induced seizure at 30 mg/kg, ip administered before 30 mins of ScPTZ stimulation; format: functional, organism-based
Mus musculus [4] = experiment: Anticonvulsant activity in Kunming mouse assessed as reduction in ScPTZ-induced seizure at 300 mg/kg, ip administered before 30 mins of ScPTZ stimulation; format: functional, organism-based
Mus musculus [5] = experiment: Anticonvulsant activity in ip dosed CF-1 mouse assessed as reduction in ScPTZ-induced seizure administered before 30 mins of ScPTZ stimulation; format: functional; settings: CF-1, ip, 0.5 h
[6] = Solubility of compound in water; format: physicochemical
[7] = Solubility of compound in DMSO; format: physicochemical
Cortical neurone = experiment: Antiepileptic actvity in C57BL/6 mouse Primary cortical neuron assessed as reduction in 4-AP-induced excitability measured for 8 mins by Fluo-8/AM staining based FLIPR assay; format: functional, cell-based; settings: C57BL/6, Cortical neurone
[8] = Neurotoxicity in ip dosed Kunming mouse assessed as reduction in equilibrium measured after 30 mins by rotarod test; format: toxicity, organism-based; settings: in vivo
[9] = Protective index, ratio of TD50 for neurotoxicity in ip dosed Kunming mouse to ED50 for anticonvulsant activity in ip dosed Kunming mouse; format: toxicity, organism-based; settings: in vivo, read-out: Ratio TD50/ED50
Mus musculus [10] = experiment: Anticonvulsant activity in ip dosed Kunming mouse assessed as reduction in ScPTZ-induced seizure administered before 30 mins of ScPTZ stimulation; format: functional; settings: 0.5 h

Row | SMILES | Activity (Mus musculus [1]) | Activity (Mus musculus [2]) | Activity (Mus musculus [3]) | Activity (Mus musculus [4]) | ED50 (Mus musculus [5]) | solubility [6] | solubility [7] | pIC50 (Cortical neurone) | TD50 at 0.5 h [8] | selectivity ratio [9] | ED50 (Mus musculus [10])
1 | Cc1ccc(Cc2cc(=O)n3nc(-c4ccccc4)nc3[nH]2)cc1 | inactive | inactive | inactive | inactive |  |  |  |  |  |  | 
2 | CCCCCc1nc2[nH]c(-c3ccccc3)cc(=O)n2n1 | inactive | inactive | inactive | inactive |  |  |  |  |  |  | 
3 | Cc1ccc(-c2nc3[nH]c(Cc4ccc(Cl)cc4)cc(=O)n3n2)cc1 | inactive | inactive | inactive | Active |  |  |  |  |  |  | 
4 | CCC1(c2ccccc2)C(=O)NC(=O)NC1=O [PHENOBARBITAL] |  |  |  |  | 13.2 mg/kg |  |  |  |  |  | 
5 | O=c1cc(-c2ccc(Cl)cc2)[nH]c2nc(Cc3ccccc3)nn12 | inactive | inactive | inactive | inactive |  |  |  |  |  |  | 
6 | Cc1ccc(-c2nc3[nH]c(-c4ccccc4)cc(=O)n3n2)cc1 |  |  |  |  |  | 14.3 µg/mL (≈ 0.0473 mM) | 3000 µg/mL (≈ 9.92 mM) | 5.49 |  |  | 
7 | O=c1cc(Cc2ccccc2)[nH]c2nc(Cc3ccc(Cl)cc3)nn12 | inactive | Active | inactive | inactive |  |  |  | 5.37 |  |  | 
8 | Cc1ccc(Cc2cc(=O)n3nc(-c4ccc(C)cc4)nc3[nH]2)cc1 | inactive | inactive | inactive | inactive |  |  |  |  |  |  | 
9 | O=c1cc(Cc2ccc(Cl)cc2)[nH]c2nc(Cc3ccc(F)cc3)nn12 | inactive | Active | inactive | Active |  |  |  | 5.44 |  |  | 
10 | CCCCCCc1nc2[nH]c(-c3ccccc3)cc(=O)n2n1 | inactive | inactive | inactive | inactive |  |  |  |  |  |  | 
11 | O=c1cc(-c2ccccc2)[nH]c2nc(Cc3ccc(F)cc3)nn12 | inactive | Active | Active | Active |  |  |  | 5.60 | 261 mg/kg | 3.67 | 71.6 mg/kg
12 | O=c1cc(-c2ccccc2)[nH]c2nc(Cc3ccccc3)nn12 | inactive | Active | Active | Active |  |  |  | 5.88 |  |  | 
13 | O=c1cc(-c2ccc(Cl)cc2)[nH]c2nc(-c3ccccc3)nn12 |  |  |  |  |  | 14.3 µg/mL (≈ 0.0443 mM) | 3000 µg/mL (≈ 9.29 mM) | 5.63 |  |  | 
14 | Cc1ccc(Cc2nc3[nH]c(Cc4ccccc4)cc(=O)n3n2)cc1 | inactive | Active | Active | Active |  |  |  | 5.61 |  |  | 
15 | O=c1cc(Cc2ccccc2)[nH]c2nc(Cc3ccccc3)nn12 | inactive | inactive | inactive | inactive |  |  |  |  |  |  | 
16 | CCCCCCCc1nc2[nH]c(-c3ccccc3)cc(=O)n2n1 | inactive | inactive | inactive | inactive |  |  |  |  |  |  | 
